US6265390A, “Methods for expressing nucleic acid sequences using nucleic acid constructs comprising hypoxia response elements” (Oxford Biomedica (UK) Limited, priority 1994, dated 2001)

Assays:
[1] = system: M3 cells (HT1080 transfected with cytosine deaminase under PGK-1 promoter with 3 copies of P24); experiment: Hypoxia-induced pro-drug sensitisation, M3 cells; type: cell-based; conditions: 16 hours hypoxic exposure, 24 hours drug, 96 hour growth delay
Procedure: The PGK-1 hypoxia response element was evaluated within the context of the PGK-1 gene promoter (M3), the 9-27 gene promoter (9-3C) and the thymidine kinase gene promoter (sTK5). […] The promoters and PGK-1 hypoxia response elements were placed upstream of genes encoding the endothelial CD2 surface protein and the negative selectable marker cytosine deaminase. The 9-27 and thymidine kinase promoters were each used with 3 copies of the P18 PGK-1 element and the PGK-1 gene promoter was used with 3 copies of the P24 PGK-1 element. Transfected cells (9-3C and M3) as described in Example 9 were tested for sensitivity to 5-FC. Cells were subjected to hypoxic exposure (16 hours), followed by exposure to 5-FC or 5-FU (24 hours), followed by a 96 hour growth delay.

[2] = system: 9-3C cells (HT1080 transfected with cytosine deaminase under 9-27 promoter with 3 copies of P18); experiment: Hypoxia-induced pro-drug sensitisation, 9-3C cells; type: cell-based; conditions: 16 hours hypoxic exposure, 24 hours drug, 96 hour growth delay
Procedure: The PGK-1 hypoxia response element was evaluated within the context of the PGK-1 gene promoter (M3), the 9-27 gene promoter (9-3C) and the thymidine kinase gene promoter (sTK5).
The constructs were similar to those described in Example 7. The promoters and PGK-1 hypoxia response elements were placed upstream of genes encoding the endothelial CD2 surface protein and the negative selectable marker cytosine deaminase. The 9-27 and thymidine kinase promoters were each used with 3 copies of the P18 PGK-1 element and the PGK-1 gene promoter was used with 3 copies of the P24 PGK-1 element.
(§1) Transfected cells (9-3C and M3) as described in Example 9 were tested for sensitivity to 5-FC. Cells were subjected to hypoxic exposure (16 hours), followed by exposure to 5-FC or 5-FU (24 hours), followed by a 96 hour growth delay.

[3] = system: MCF-7(-4) cells transfected with thymidine phosphorylase gene; experiment: Drug sensitivity of thymidine phosphorylase transfectant -4; type: cell-based, human; conditions: survival curve, FIG. 3
Source text: (§2) Human breast cancer cells of the cell line MCF-7 were transfected with a gene for thymidine phosphorylase. […] The gene is suitable for linking up with hypoxically-inducible promoters/enhancers.
(§3) Results of drug sensitivity experiments are shown in FIGS. 3-7. -7, -4, -12, +4 and +16 are all derivatives of MCF-7 which have been transfected with the thymidine phosphorylase gene.
(§4) Note that there is a log scale and therefore the IC50 (the concentration of drug required to inhibit growth by 50%) is more than 100 times lower for the transfectants -12 and -4. Therefore, the expression of one gene at a higher level can make these cells 100 times more sensitive to chemotherapy. Clearly there is variation depending on the level of expression and therefore we want to be able to switch on as high as possible. […] This means that it is the activation step that is important rather than downstream events.

[4] = system: MCF-7 wild-type and thymidine phosphorylase transfectant clones; experiment: Drug sensitivity of clones -4, -7, -12, -16, +4 compared with wild type; type: cell-based, human; conditions: FIG. 6
Source text: as §2, §3, §4

[5] = system: control (Wt) non-transfected HT1080 cells and transfectant cells (9-3C, M3); experiment: Drug sensitivity after hypoxic or normoxic treatment, control and transfectants; type: cell-based; conditions: 16 hours exposure, 24 hours drug, 96 hour growth delay
Procedure: as §1

[6] = system: endogenous human PGK-1 gene expression in HepG2 cells; experiment: RNA analysis of endogenous PGK-1 gene expression; type: cell-based; conditions: 100 μM, 16 hours, hypoxia 1% O2
Procedure: (§5) The cell lines used were HepG2 (human hepatoma), HeLa (human cervical carcinoma) and L cells (mouse fibroblast) grown in minimal essential medium, with Earle's salts, supplemented with fetal bovine serum (10%), glutamine (2 mM), penicillin (50 units/ml) and streptomycin sulfate (50 μg/ml). For assay of endogenous gene expression, and for preparation of nuclear extracts, cells were grown to approximately 70% confluence. […]
(§6) RNA was extracted, analysed by RNase protection, and quantitated as previously described (Pugh et al 1991). […]
(§7) For assay of endogenous PGK-1 gene expression 50 μg of RNA extracted from HepG2 cells was hybridised with a riboprobe which consisted of 121 bp from the 5' end of the exon 3 of the human PGK-1 gene, together with 68 bp of adjacent intron (obtained by PCR of genomic DNA and cloning by standard methods). […] In these experiments a small quantity (0.5 μg) of RNA extracted from K562 cells (a human […] cell line which expresses a globin mRNA abundantly) was added to each sample before hybridisation, and the samples were probed concurrently with the α97 probe in addition to the PGK-1 or LDH-A probe. […]

[7] = system: endogenous mouse LDH-A gene expression in L cells; experiment: RNA analysis of endogenous LDH-A gene expression; type: cell-based; conditions: 100 μM, 16 hours, hypoxia 1% O2
Procedure: as §5, §6, §7

SMILES: Nc1nc(=O)[nH]cc1F [5-FC, 5-fluorocytosine]
- sensitivity post-hypoxia [1]: significantly more sensitive
- sensitivity post-hypoxia [2]: significantly more sensitive

SMILES: O=c1[nH]cc(F)c(=O)[nH]1 [5FU, 5-fluorouracil]
- difference in sensitivity between WT and transfectant [3]: relatively little difference
- difference in sensitivity of the cells [4]: very little difference
- difference in sensitivity following hypoxic or normoxic treatment [5]: no significant difference

SMILES: C[C@@H]1C[C@@H]([C@H](O)CC2CC(=O)NC(=O)C2)C(=O)[C@@H](C)C1 [cycloheximide]
- effect on hypoxic induction of gene expression [6]: abrogated the response to hypoxia
- effect on hypoxic induction of gene expression [7]: abrogated the response to hypoxia
